The values below come from patent publication US9096543B2, “Nuclear transport modulators and uses thereof” (Karyopharm Therapeutics Inc., priority 2012, dated 2015).

The test system of data set [1] is A549 xenograft tumors. The data set can be described thus: A549 lung carcinoma xenograft model. Format: in vivo, CB-17 SCID mice. The settings on record: cisplatin 5 mg/kg IP (positive control). As for the experimental part:
The A549 cell line was derived from explant culture of alveolar carcinoma tissue from a person. The cells were grown in Ham's F12-K tissue culture media with 10% fetal calf serum and 1% penicillin/streptomycin. Cells were routinely trypsinized and passaged 1:10. Thirty-two (32) female CB-17 SCID mice (Charles River Labs strain code 236), aged 5 to 6 weeks were used with a mean pre-treatment body weight of 16.3 grams. Mice were divided into four (4) groups of eight (8) prior to the initiation of treatment based on tumor volume. On the day of implantation, cells were washed in PBS, trypsinized and resuspended in complete media to a density of 2×10^7 cells/mL prior to being mixed with an equal volume of Matrigel. This mixture was then inoculated subcutaneously into mice in a volume of 0.1 mL using a 23 G needle.
Animal weights and condition were recorded daily, and tumors were measured on Mondays, Wednesdays and Fridays with micro-calipers, and tumor volume was calculated as (length×width×width)/2.
Animals with weight loss of more than 20% of their starting weight were euthanized. Mice with weight loss of more than 15% of their starting weight were not treated again until weight loss recovered to less than 5% of their starting weight. Any animals with a tumor volume of more than 1500 mm^3 were euthanized.
Dosing solutions were prepared fresh on each day of dosing. Compound 2 was supplied as a lyophilized powder containing 69.61% Compound 2 with the balance made up of Pluronic F-68 and PVP K29/32. This was prepared by dissolving the lyophilized powder in sterile water. Cisplatin was dissolved at 5 mg/mL in DMSO and diluted 1:10 in sterile water for injection. All test articles were administered in a volume of 0.1 mL/10 g body weight.
Statistical differences between treatment groups were determined using Mann-Whitney Rank Sum or ANOVA tests with a critical value of 0.05.

Data set [2] concerns IMQ-induced psoriasis. The data set can be described thus: Imiquimod (IMQ)-induced dermal inflammation/psoriasis model (Study 2). The format is in vivo, BALB/c mice. The settings on record: Compound 2 2.5 mg/kg sc, cyclophosphamide 10 mg/kg oral. As for the experimental part: Forty (40) male BALB/c mice (Biological E Limited, Hyderabad (CPCSEA registration number: 36/99/CPCSEA)) were divided into four (4) groups consisting of ten (10) mice each. Animals were randomized based on their body weight. The groups were designated as Group-I (Nave), Group-II (IMQ; vehicle (PEG 400 and HPBCD)), Group-III (IMQ; Compound 2 (2.5 mg/kg)) and […] (IMQ; cyclophosphamide (10 mg/kg)).
A small area on the dorsum of each mouse was shaved, ensuring that these areas were of equal size/area. Psoriasis was induced in Groups II to IV by topical application of 50 mg of IMQ cream daily from Day 1 to Day 6 on the dorsum of the animals. On Day 1 and Day 2 of the study, four hours after topical application of IMQ, Compound 2 or positive control (cyclophosphamide) or vehicle were administered to animals in pertinent groups. Of note, animals in Group II and Group III were subjected to subcutaneous injections, whereas animals in Group IV received oral administration. The Compound 2, vehicle and cyclophosphamide treatment was terminated on Day 2. These groups of animals were maintained on daily IMQ treatments until Day 6. On Day 7, the psoriasis-induced animals were re-randomized into 3 groups consisting of 10 animals each based on Cumulative Disease Activity Index (CDAI). From Day 7 to Day 9, animals received vehicle or positive control or Compound 2. Of note, on these days animals were not treated with IMQ. From Day 10 to Day 14, the animals were treated alternatively with IMQ (Days 10, 12 and 14), or vehicle, positive control or Compound 2 (Days 11, 13).
All animals were observed daily for a period of […] for gross observations, body weight and feed and water intake. On Days 1 and 2, scorings of erythema, scaling, folding and thickening of skin were recorded 2 hours after administration of vehicle/positive control/test compounds, and on Days 3 to 14 scorings were recorded 4 hours after IMQ application, or administration of positive control, vehicle or Compound 2.
Vehicle was prepared by dissolving 40 mg of HPBCD in 70.0 mL of distilled water. Compound 2 was prepared by dissolving 3.59 mg in 0.5% PVP and 0.5% Pluronic. Cyclophosphamide was prepared by dissolving 500 mg of CMC in 100 mL distilled water.
The experimental results shown in Table 10 are expressed as mean±SEM. Data was assessed using one-way ANOVA, and post hoc analysis was performed using Dunnett's test.

A short description of data set [3]: Brain to plasma ratio (B:P) in rats. The settings on record: 10 mg/kg po. Format: in vivo. Here is the method:
Brain tissue following collection was rinsed with cold saline, dried on filter paper, weighed and snap-frozen by placing on dry ice. All samples were stored frozen at approximately −80° C. until analysis. […] Plasma samples were treated with the identical method (except homogenization step) and concentration of compound in either matrix was calculated based on the generated standard curves.

Data set [4] concerns the target T1, CRM1 (Homo sapiens, UniProt O14980).
T1 construct: endogenous in cells; host or cells: U2OS-RevGFP cells
The data set can be described thus: RevGFP assay: inhibition of CRM1 mediated nuclear export. The format is cell-based. The settings on record: U2OS-RevGFP cells, ~1 hr with compound; read-out: Rev Export [IC50]. Here is the method: The inhibition of CRM1 mediated nuclear export by compounds of the invention was determined. The inhibitory activity of compounds for the CRM1 protein was determined in the RevGFP assay.
Experimental protocol: Rev is a protein from human immunodeficiency virus type 1 (HIV-1) and contains a nuclear export signal (NES) in its C-terminal domain and a nuclear localization signal (NLS) in its N-terminal domain. Nuclear export of Rev protein is dependent on the classical NES/CRM1 pathway (Neville et al, 1997, Kau et al, 2003). Nuclear accumulation of Rev is observed in cells treated with specific inhibitors of CRM1, such as LMB (Kau et al, 2003). In this assay, U2OS-RevGFP cells are seeded onto clear-bottom, black, 384-well plates the day before the experiment. Compounds are serially diluted 1:2 starting from 40 μM in a separate 384-well plate in DMEM, and then transferred onto cells. Cells are incubated with compound for ˜1 hr before fixation with 3.7% formaldehyde and nuclei staining with Hoechst 33258. The amount of GFP in cell nuclei was measured and compound IC50s were determined (Kau et al, 2003).

Data set [5] can be described thus: MTT Cell Proliferation Assay (CellTiter 96 AQueous One Solution, MTS). Format: cell-based. As to conditions: human; 72 h treatment; cell line not given; read-out: Cytotoxicity [IC50]. The text has this: The CellTiter 96® AQueous One Solution cell proliferation assay (Promega) was used on MM1.S, Jurkat and HCT-116 cells to study the cytotoxic and cytostatic properties of the compounds. The assay is based on the cleavage of the tetrazolium salt, MTS, in the presence of an electron-coupling reagent PES (phenazine ethosulfate). The MTS tetrazolium compound is bioreduced by cells into a colored formazan product that is soluble in tissue culture medium. This conversion is presumably accomplished by NADPH or NADH produced by dehydrogenase enzymes in metabolically active cells. Assays are performed by adding a small amount of the CellTiter 96® AQueous One solution reagent directly to culture wells, incubating for 1-4 hours and then recording the absorbance at 490 nm with a 96-well plate reader. […] The cells were seeded at 5×10^3 to 1.5×10^4 cells (depending on cell type) in each well of 96-well plate in 100 μL of fresh culture medium and adherent cells were allowed to attach for overnight. The stock solutions of the compounds were diluted in cell culture medium to obtain eight concentrations of each drug, ranging from 1 nM to 30 μM and DMSO at less than 1% v/v was used as a negative control. After 72 h of treatment 20 μl of CellTiter 96® AQueous reagent was added into each well of the 96-well assay plates and the plate was incubate at 37° C. for 1-4 hours in a humidified, 5% CO2 atmosphere. Then the absorbance of each well was recorded at 490 nm by using a 96-well plate reader. In most cases the assay was performed in triplicates and the results were presented as half maximal inhibitory concentration (IC50) described below. Optical density versus compound concentration was plotted and analyzed using non linear regression equations (Excel Fit) and the IC50 for each compound was calculated.

Data set [6] is described as follows: Pharmacokinetics (plasma AUC) in rats. Format: in vivo. The settings on record: rat, 10 mg/kg po.
Data set [7] in a line: Pharmacokinetics (plasma AUC) in mice. The format is in vivo. The settings on record: mouse, 10 mg/kg po. Here is the method:
Blood was collected from mice (N=3) to contribute to the total of 10 time points (pre-dose, 5 min, 15 min, 30 min, 1 hour, 2 hours, 4 hours, 8 hours, 12 hours and 24 hours post dose). Mice were bled on a rotating basis, each mouse contributing 3 time points to the blood collection. At the designated time points, animals were anaesthetized under isoflurane, and approximately 110 μL of blood per time point was collected via retro-orbital puncture into pre-cooled K2EDTA (anti-coagulant) tubes. Blood samples were put on wet ice and centrifuged (2000 g, 5 min at 4° C.) to obtain plasma within 30 minutes of sample collection. All samples were stored frozen at approximately −80° C. until analysis. Prior to analysis, samples were mixed with internal standard (dexamethasone) in acetonitrile, vortexed, centrifuged, and supernatant was injected for analysis. Concentration of compounds in plasma was determined using LC-MS-MS instrumentation (API 4000, Triple Quadruple with electrospray ionization; Acuity Ultra Performance Liquid Chromatography column C18, with MeOH and formic acid as organic solvents). PK parameters including but not limited to Tmax, Cmax, t1/2, AUClast, AUCinf were calculated using WinNonlin Professional 6.2 software package, non-compartmental pharmacokinetic model NCA200.

T1 sequence (O14980 whole entry): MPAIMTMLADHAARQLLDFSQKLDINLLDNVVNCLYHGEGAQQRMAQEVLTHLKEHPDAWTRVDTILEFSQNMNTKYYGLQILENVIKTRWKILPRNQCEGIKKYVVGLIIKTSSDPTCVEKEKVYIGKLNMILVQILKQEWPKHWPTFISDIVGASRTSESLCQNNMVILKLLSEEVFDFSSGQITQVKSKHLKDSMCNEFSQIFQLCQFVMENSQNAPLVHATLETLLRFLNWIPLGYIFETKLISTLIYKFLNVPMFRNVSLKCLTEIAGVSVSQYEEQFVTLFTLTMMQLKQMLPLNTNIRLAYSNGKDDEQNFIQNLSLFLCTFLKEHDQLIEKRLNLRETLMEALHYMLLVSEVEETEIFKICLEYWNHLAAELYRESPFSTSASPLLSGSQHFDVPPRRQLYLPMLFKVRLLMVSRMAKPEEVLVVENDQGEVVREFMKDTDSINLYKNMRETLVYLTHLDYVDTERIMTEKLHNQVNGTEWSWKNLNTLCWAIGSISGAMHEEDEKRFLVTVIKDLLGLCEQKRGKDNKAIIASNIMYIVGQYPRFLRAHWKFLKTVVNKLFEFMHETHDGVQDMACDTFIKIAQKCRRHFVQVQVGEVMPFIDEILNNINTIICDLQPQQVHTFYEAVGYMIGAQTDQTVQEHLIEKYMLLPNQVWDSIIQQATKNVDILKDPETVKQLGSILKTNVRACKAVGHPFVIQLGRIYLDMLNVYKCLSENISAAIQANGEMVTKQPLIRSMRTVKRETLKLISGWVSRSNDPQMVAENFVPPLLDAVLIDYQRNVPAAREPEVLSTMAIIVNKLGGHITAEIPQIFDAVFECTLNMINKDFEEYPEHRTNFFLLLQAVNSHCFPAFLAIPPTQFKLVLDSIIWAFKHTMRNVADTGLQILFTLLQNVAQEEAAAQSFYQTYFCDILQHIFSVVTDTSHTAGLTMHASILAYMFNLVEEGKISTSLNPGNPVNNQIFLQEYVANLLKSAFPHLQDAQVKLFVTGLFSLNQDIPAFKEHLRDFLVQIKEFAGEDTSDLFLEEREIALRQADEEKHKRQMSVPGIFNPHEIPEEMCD

For the compound `N.N.[Cl][Pt][Cl]` [cisplatin, reference compound], the “tumor volume AUC compared to vehicle control (one-way ANOVA)” value in data set [1] is “no statistically significant reduction in tumor growth”.

As to `O=P1(N(CCCl)CCCl)NCCCO1` (stereo not drawn) [cyclophosphamide, reference compound], the “Rate of reduction of DAI, % change from 1st dose administration” value in data set [2] (Day 7, pre-IMQ/drug administration readings) is recorded as 0.0%; in data set [2] (Day 10, 4 hr. post-IMQ/drug administration readings), −86.0%.

Broadly, the Kp is the ratio of the level in a tissue or fluid to that in plasma or blood. A word on the IC50: it is the midpoint of a concentration-inhibition curve. Broadly, the AUC(0-inf) is the area under the concentration-time curve extrapolated to infinity. A low value points to less exposure. With `CC(C)OC(=O)/C=C\n1cnc(-c2cc(OC(C)C)cc(C(F)(F)F)c2)n1` [Compound X-2], the “B:P” value in data set [3] was “moderate brain to plasma ratio”. Besides, in data set [3] (rat, brain and plasma), the Kp at 2 h was 1.27. In data set [4], the IC50 is below 1 µM. For the same compound, in data set [5], the IC50 at 72 h is below 1 µM. Further, the AUC(0-inf) in data set [6] was 68.3 ng·h/mL.

Regarding `O=C(/C=C\n1cnc(-c2cc(C(F)(F)F)cc(C(F)(F)F)c2)n1)N1CC(F)(F)C1` [Compound X-3, reference compound], the AUC(0-inf) in data set [7] and in data set [6] was 12300 ng·h/mL throughout. Besides, the IC50 in data set [4] was below 1 µM. Besides, the IC50 at 72 h in data set [5] is below 1 µM.
